From patent US9930887B2, “Compound for increasing amino acid content in plant, and use thereof” (Okayama Prefecture, priority 2011, dated 2018)
Like-named read-outs stand apart in the source and are kept apart here.

How the values were obtained:
Japanese mustard spinach = details: 28 days
Experimental: (§1) As a cultivation temperature, two types of a low temperature condition LT (Low Temperature: light period 20° C./dark period 15° C.) and a high temperature condition HT (High Temperature: light period 25° C./dark period 20° C.) were set. […] Specifically, a single individual was put into each pot having about […], and 25 mL of each solution was provided to roots of each pot once a week. In the same way as Example 1, a leaf (or a terrestrial part) was measured as a sample in a cation mode and an anion mode of CE-TOFMS (capillary electrophoresis-time-of-flight mass spectrometry: Agilent CE-TOFMS system (Agilent technologies)). By comparing a detected peak with database on the basis of m/Z and a migration period, an amino acid was searched, identified, and quantified.

spinach = test: Free amino acid content in spinach under cultivation temperature control; assay type: in vivo, Spinacia oleracea; details: 28 days
Experimental: as §1, with “A cultivation condition of spinach, which was a vegetable of the goosefoot family (Chenopodioideae), supplied with glutathione was examined. After spinach was seeded, sprouts germinated to a similar extent were selected, were cultivated in an incubator (light period: 14 hours/dark period: 10 hours, light intensity: about 250 μE/m^2/s), and were sampled after 28 days. As” for “As”

Arabidopsis [1] = assay type: in vivo, Arabidopsis thaliana
Arabidopsis [2] = assay type: in vivo, Arabidopsis thaliana; details: 1 mM GSSG, 2 mM GSH or 3 mM NH4NO3, 25 mL per pot to roots once a week
garland chrysanthemum = test: Free amino acid content in garland chrysanthemum at various glutathione concentrations; assay type: in vivo, Chrysanthemum coronarium; details: 28 days
Experimental: An effect on amino acid contents of garland chrysanthemum which was vegetable of the composite family (Compositae), to which garland chrysanthemum glutathione having various concentrations was supplied, was examined. After garland chrysanthemum was seeded, sprouts germinated similarly were selected, were cultivated in an incubator (light period: 14 hours, 20° C./dark period: 10 hours, 15° C., light intensity: about 250 μE/m^2/s), and were sampled after 28 days. As a medium, a soil formed by placing vermiculite (Asahi industrial corporation) as a lower layer, KUREHA seedling raising soil (KUREHA CORPORATION) as a middle layer, and vermiculite (Asahi industrial corporation) as an upper layer at a ratio of 2:1:1 in lamination was used.
In this experiment, only water (Cont.), 0.1 mM, 0.2 mM, 0.5 mM, 1 mM, 2 mM, and 5 mM of oxidized glutathione (GSSG) solutions were provided to plants.

[3] = low temperature condition (light 20° C./dark 15° C.), 2 mM GSH
[4] = high temperature condition (light 25° C./dark 20° C.), 1 mM GSSG

N[C@@H](CCC(=O)N[C@@H](CS)C(=O)NCC(=O)O)C(=O)O [glutathione]
effect of increase in amino acid content relative to control = 1 (FIG. 10) (Japanese mustard spinach; high temperature condition (light 25° C./dark 20° C.), β-alanine, asparagine, glutamine): observed in part of amino acids
effect on amino acid contents relative to control = 1 (FIG. 8) (spinach; low temperature condition (light 20° C./dark 15° C.), observed in part of amino acids): small

N[C@@H](CCC(=O)N[C@@H](CS)C(=O)NCC(=O)O)C(=O)O [GSH, reduced glutathione]
asparagine content in a leaf (Arabidopsis [1]; effect larger in leaf before photoirradiation (L0), 1 mM GSSG, 2 mM GSH, 3 mM NH4NO3): largely increased
serine content in a leaf (Arabidopsis [1]; treatment combined with photoirradiation for 8 hours (L8, 100 μE/m^2/s), 1 mM GSSG, 2 mM GSH, 3 mM NH4NO3): remarkably increased
GABA content relative to control (Japanese mustard spinach; [3]): ≥ 2 times
arginine content relative to control (Japanese mustard spinach; [3]): ≥ 2 times
asparagine content relative to control (Japanese mustard spinach; [3]): ≥ 2 times
aspartic acid content relative to control (Japanese mustard spinach; [3]): ≥ 2 times
glutamine content relative to control (Japanese mustard spinach; [3]): ≥ 2 times
isoleucine content relative to control (Japanese mustard spinach; [3]): ≥ 2 times
threonine content relative to control (Japanese mustard spinach; [3]): ≥ 2 times
total free amino acid content relative to control condition (only water) (Arabidopsis [2]; plants after 4 weeks from seeding): about 2.9 times
total free amino acid content relative to control condition (only water) (Arabidopsis [2]; plants after 5 weeks from seeding): about 2.4 times

oxidized glutathione [GSSG]
asparagine content in a leaf (Arabidopsis [1]; in vivo): largely increased
serine content in a leaf (Arabidopsis [1]; in vivo): remarkably increased
glycine content relative to control (spinach; [4]): ≥ 5 times
homoserine content relative to control (spinach; [4]): ≥ 5 times
phenylalanine content relative to control (spinach; [4]): ≥ 5 times
tyrosine content relative to control (spinach; [4]): ≥ 5 times
asparagine content, ratio to control = 1 (garland chrysanthemum; 5 mM of GSSG): ≥ 100 times
glutamine content, ratio to control = 1 (garland chrysanthemum; 5 mM of GSSG): ≥ 100 times
glycine content, ratio to control = 1 (garland chrysanthemum; 5 mM of GSSG): ≥ 100 times
histidine content, ratio to control = 1 (garland chrysanthemum; 5 mM of GSSG): ≥ 100 times
homoserine content, ratio to control = 1 (garland chrysanthemum; 5 mM of GSSG): ≥ 100 times
total free amino acid content, ratio to control = 1 (garland chrysanthemum; 5 mM of GSSG): 24.8 times
total free amino acid content compared with control (garland chrysanthemum; GSSG 0.1 mM, 25 mL per pot once a week): decreased
free amino acid contents compared with total free amino acid content under control condition (garland chrysanthemum; GSSG 0.2 mM to 5 mM, 25 mL per pot once a week): increased concentration-dependently
